# Reference: patent publication US11547761B1, “Antibody adjuvant conjugates” (The Board of Trustees of the Leland Stanford Junior …, priority 2016, dated 2023)
# Assays:
# [1] = system: human APCs (myeloid cells); assay: APC-tumor co-culture / myeloid cell stimulation, surface markers by flow cytometry; assay type: cell-based; conditions: 18 hours of stimulation
# From the text: (§1) Human antigen presenting cells (APCs) were negatively selected from human peripheral blood mononuclear cells obtained from healthy blood donors (Stanford Blood Center) by density gradient centrifugation using a RosetteSep Human Monocyte Enrichment Cocktail (Stem Cell Technologies) containing monoclonal antibodies against CD2, CD3, CD8, CD19, CD56, CD66b and CD235a. Immature APCs were subsequently purified to >97% purity via negative selection using an EasySep Human Monocyte Enrichment Kit without CD16 depletion containing monoclonal antibodies against CD2, CD3, CD19, CD20, CD56, CD66b, CD123 and CD235a.
# Tumor cells were resuspended in PBS with 0.1% fetal bovine serum (FBS) at 1 to 10×10^6 cells/mL. Cells were subsequently incubated with 2 μM CFSE to yield a final concentration of 1 μM. The reaction was ended after 2 minutes via the addition of 10 mL complete medium with 10% FBS and washed once with complete medium. Cells were either fixed in 2% paraformaldehyde and washed three times with PBS or left unfixed prior to freezing the cells in 10% DMSO, 20% FBS and 70% medium.
# (§2) 2×10^5 APCs were incubated with or without 6.5×10^5 autologous or allogeneic CFSE-labeled tumor cells in 96-well plates (Corning) containing IMDM medium (Gibco) supplemented with 10% fetal bovine serum, 100 U/mL penicillin, 100 μg/mL streptomycin, 2 mM L-glutamine, sodium pyruvate, non-essential amino acids, 50 μM 2-ME and, where indicated, various concentrations of anti-tumor antibody and the indicated adjuvants. Cells and cell-free supernatants were analyzed after 18 hours via flow cytometry.
# as §1, with “[…]” for “CD2, CD3, CD8, CD19, CD56, CD66b”, “[…].” for “CD235a.”, “CD14, CD16, CD40, CD86, CD123,” for “CD2, CD3, CD19, CD20, CD56, CD66b, CD123”
# as §2, with “antibody.” for “anti-tumor antibody and the indicated adjuvants.”
# (§3) 2×10^5 APCs were incubated with or without 6.5×10^5 allogeneic CFSE-labeled tumor cells in 96-well plates (Corning) containing IMDM medium (Gibco) supplemented with 10% fetal bovine serum, 100 U/mL penicillin, 100 μg/mL streptomycin, 2 mM L-glutamine, sodium pyruvate, non-essential amino acids and, where indicated, various concentrations of unconjugated CD20 antibody, and immunoconjugates of the invention were prepared according to the examples above. Cells and cell-free supernatants were analyzed after 18 hours via flow cytometry or ELISA.
# protein A = protein A (Staphylococcus aureus, UniProt P38507); conditions: 50 ug/ml in PBS, overnight, SDS-PAGE of beads and supernatants
# Experimental: Beads were pelleted by centrifugation, supernatant was removed, and residual liquid was removed from the beads using a fine pipette tip. Non-reducing Laemmli sample buffer (100 ul) was added to the beads. Beads and supernatants were heated to 90° C. for 5 minutes and equal fractions were analyzed by SDS-PAGE (4-12% NUPAGE gel, MOPS buffer) followed by staining with Coomassie (GelCode™ Blue, ThermoFisher). Molecular weight standard is SeeBlue® Plus 2 marker (ThermoFisher LC5925).
# [2] = target: T1, recombinant human CD64 protein (Homo sapiens, UniProt P12314); assay: ELISA binding to CD64; conditions: titration
# T1 construct: purchased R&D Systems
# T1 sequence (P12314 16-374): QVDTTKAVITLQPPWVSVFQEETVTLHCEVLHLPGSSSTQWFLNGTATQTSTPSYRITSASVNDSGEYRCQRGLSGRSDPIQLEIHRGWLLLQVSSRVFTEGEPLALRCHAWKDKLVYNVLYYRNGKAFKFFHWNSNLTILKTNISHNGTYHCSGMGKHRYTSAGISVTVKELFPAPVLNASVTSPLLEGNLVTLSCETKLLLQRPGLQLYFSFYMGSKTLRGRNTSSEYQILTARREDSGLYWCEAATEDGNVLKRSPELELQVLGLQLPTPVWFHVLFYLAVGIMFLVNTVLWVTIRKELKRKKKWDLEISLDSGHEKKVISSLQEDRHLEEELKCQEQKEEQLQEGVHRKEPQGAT
# Experimental: Maxysorp ELISA plates were coated overnight with 1.5 ug/ml recombinant human CD64 protein (R&D Systems). Plates were blocked with PBS containing 1% BSA, and incubated with a titration of Rituximab or Rituximab immunoconjugates (Rituximab BB-01). Bound antibodies were detected with Peroxidase conjugated AffiniPure F(ab′)2 Fragment Goat Anti-Human IgG (Jackson) using TMB color development and absorbance at 450 nm was measured after stopping the reaction.
# [3] = system: human APCs (myeloid cells); assay: Cytokine secretion from human APCs / myeloid cells (cell free supernatants); assay type: cell-based; conditions: 18 hours
# Experimental: After 18 hours, cell free supernatants were analyzed for cytokine secretion via cytokine bead arrays; n=3. P-values≤0.05 depicted by *, P-values≤0.01 depicted by **, P-values≤0.001 depicted by ***, P-values≤0.0001 depicted by ****.
# as §2, with “Cells and cell-free supernatants were analyzed after 18 hours via flow cytometry.” left out
# While the expression of T cell stimulatory molecules such as CD40, CD86 and HLA-DR is necessary for effective T cell activation, APCs also influence the nature of the ensuing immune response through the secretion of cytokines. Therefore, the capacity of immunoconjugates to elicit cytokine secretion in human APCs following stimulation was investigated as described above.
# The capacity of these immunoconjugates to elicit cytokine secretion in human APCs following stimulation was investigated as described in Example 3 above.
# as §3, with “Cells and cell-free supernatants were analyzed after 18 hours via flow cytometry or ELISA.” left out
substance,measurement,setting,value
Rituximab [reference compound],CD86 upregulation on myeloid cells,[1]; compared with the corresponding unconjugated antibody unless the value names another comparator,the control does not
same,APC / myeloid / dendritic cell activation (overall),[1]; listed as unconjugated CD20 antibody,do not
same,binding to protein A,protein A,bind to protein A
same,binding to CD64,[2],comparable binding to CD64
same,cytokine secretion (overall),[3],do not
